Reference: patent publication US12697313B2, “Methods of treating anemia using formoterol or a pharmaceutically acceptable salt thereof” (Dana-Farber Cancer Institute, Inc., priority 2022, dated 2026)
Entries after “also recorded” stand apart in the source; their conditions may differ.

Legend:
primary human HSPCs = assay: Erythroid differentiation liquid culture of primary human HSPCs, flow cytometry; format: cell-based
Description: To address this, primary human HSPCs were treated with varying doses of FF (Selleckchem). […] To ascertain if FF administration plays a role further upstream in the erythroid differentiation pathway, methylcellulose colony-formation assays were performed.
CD34+ primary human hematopoietic stem and progenitor cells (HSPCs) were obtained from Fred-Hutchinson Cancer Research center, Seattle, USA and cultured, as previously described. Formoterol fumarate was purchased from Selleckchem (#S2020) and Sigma (#F9552), dissolved (in DMSO) and stored as per manufacturer's instructions, and used at the final working concentrations as indicated.

RIOK2 KD HSPCs = assay: Erythroid differentiation in RIOK2 knockdown HSPCs; format: cell-based, human; conditions: RIOK2 KD HSPCs vs DMSO; FIG. 6B, FIG. 45
Source text: Since RIOK2-deficient primary human HSPCs effectively model impaired erythropoiesis leading to anemia (Ghosh et la. (2022) Nat Immunol 23: 109-121), it was next investigated whether treatment with formoterol fumarate (FF) alleviates anemia in this in vitro model. To address this, RIOK2-proficient and deficient primary human HSPCs via CRISPR-Cas9 based genome-editing were generated (FIG. 6A), as previously described (Ghosh et al. (2022) Nat Immunol 23: 109-121). […] Since RPS14 deletion is reported to be MDS-genic (Ebert et al. (2008) Nature 451: 335-339; Schneider et al. (2016) Nat Med 22: 288-297), RPS14 was similarly knocked down in primary human HSPCs (FIG. 6C).
(§1) Primary human HSPCs were genome-edited, as previously described (Ghosh, S., Raundhal, M., Myers, S. A., Carr, S. A., Chen, X., Petsko, G. A., and Glimcher, L. H. (2022). Identification of RIOK2 as a master regulator of human blood cell development. Nat Immunol 23, 109-121).

APC KD HSPCs = assay: Erythropoiesis in APC knockdown HSPCs; format: cell-based, human; conditions: FIG. 46
Source text: as §1

ADRB2-deficient HSPCs = assay: Erythroid differentiation in ADRB2-deficient HSPCs (specificity for β2-adrenoreceptors); format: cell-based, human; conditions: ADRB2 knocked down HSPCs; FIG. 6E-6F
Source text: Next, to validate the specificity of FF for β2-adrenoreceptors, ADRB2 was knocked down in primary human HSPCs and treated with FF.
as §1

[1] = test system: phenylhydrazine (PHZ)-treated mice; assay: FF/Arf i.p. in PHZ-treated mice at sub-lethal dose of 60 mg/kg; format: in vivo
[2] = test system: cisplatin-treated CKD mice; assay: FF i.p. in cisplatin-driven chronic kidney disease (CKD) mice; format: in vivo
Description: Comparisons are shown in between cisplatin+FF treated mice as compared to cisplatin+ vehicle treated mice.
FF treatment at a low dose of 0.3 mg/kg 3× weekly (i.p.) alleviates RBC parameters, such as % changes in (FIG. 78A) hematocrit% (HCT%) (FIG. 78B) hemoglobin (Hb) and (FIG. 78C) RBCs in mice with cisplatin-driven CKD. * p<0.05, 2-way ANOVA. n=4-5 mice per group. Comparisons are shown in between cisplatin+FF treated mice as compared to cisplatin+ vehicle treated mice.

wild-type C57BL/6J mice = assay: Dose-specific effects of FF i.p. daily for 30 days in naive wild-type mice (Example 3); format: in vivo; conditions: for monocyte counts: FIG. 85B; for hemoglobin (Hb) levels: FIG. 84A; for RBC parameters (Hb, HCT %, RBC numbers): FIG. 84
Description: As described in Example 1 above, formoterol fumarate (FF) treatment of wild-type mice was well-tolerated (FIGS. 14A-14E). The effects of varying doses of FF from 0.1 up to 1.0 mg/kg were evaluated in naive mice without any external stress of phenylhydrazine (PHZ). Specifically, varying doses of FF 0.1-0.3-0.5-1.0 mg/kg or vehicle (0.3% DMSO in saline) were administered via intraperitoneal (i.p.) injection in 10-12 week old wild-type C57BL/6J mice daily for a period of 30 days.

[3] = test system: erythroid progenitors / bone marrow cells of wild-type mice; assay: Gene expression (bulk RNA sequencing, qPCR) in FF-treated naive wild-type mice; format: in vivo
Source text: Data represented as mean±SEM. All comparisons are done with respect to Vehicle (DMSO-treated).
This example describes the effects of formoterol fumarate treatment on expression of genes that have been linked to erythropoiesis including Klf9 (Ren et al., (2018) Yi Chuan. 40(11):998-1006 and Zhang et al., (2017) Blood 130(20):2161-2170), Klf13, Klf11 (Emery (2007) J. Cell. Biochem 100(4):1045-55), Hif1a (Wellmann, et al., (2004) J. Cell Sci. 117:175-94; Feng et al., (2022) Nature 610(7933):783-790; and Chen et al., (2019) N Engl J Med 381:1011-1022), Epas1 (Scortegagna et al. (2003) Blood 102:1634-40), Ddit4 (Yoshikawa (2023) Cancer Biomark. 37(4): 217-225), Cirbp, and Rora (Kim et al. (2008) Arterioscler Throm Vasc Biol 28(10):1796-802 and Chauvet et al., (2004) Biochem. J. 384:79-85). Differential gene expression in naïve wild-type mice was analyzed by bulk RNA sequencing according to an example workflow as depicted in FIG. 86.

mice = conditions: cited from earlier work

COc1ccc(C[C@@H](C)NC[C@H](O)c2ccc(O)c(NC=O)c2)cc1.O=C(O)/C=C/C(=O)O [FF, (E)-but-2-enedioic acid;N-[2-hydroxy-5-[(1R)-1-hydroxy-2-[[(2R)-1-(4-methoxyphenyl)propan-2-yl]amino]ethyl]phenyl]formamide]
erythroid differentiation (CD235a) (primary human HSPCs; 1/5 μM, n=5 healthy donors, FIG. 2): induces erythroid differentiation (CD235a) dose-dependently | megakaryocytic differentiation (CD41/61) (primary human HSPCs; 1/5 μM, n=5 healthy donors, FIG. 12): does not influence megakaryocytic differentiation (CD41/61) | erythroid differentiation (primary human HSPCs; FF from Selleckchem and Sigma, n=4 healthy donors, FIG. 3A-3B): similarly enhanced erythroid differentiation; also recorded: enhances erythroid differentiation | erythroid differentiation (primary human HSPCs; control (RIOK2-proficient) HSPCs, FIG. 6B): consistently enhanced erythroid differentiation in the control HSPCs | erythroid differentiation (CD235a) (primary human HSPCs; varying doses FF (Selleckchem) vs 0 μM DMSO, n=3 healthy donors, FIG. 1A): elevated erythroid differentiation in primary human HSPCs in a dose-dependent manner; also recorded: enhances erythroid differentiation (CD235a) dose-dependently | viability (primary human HSPCs; varying doses FF vs DMSO, FIG. 1B): without affecting viability, megakaryopoiesis or myelopoiesis; also recorded: does not affect viability | megakaryocytic (CD41-61) differentiation (primary human HSPCs; varying doses FF vs DMSO, FIG. 1C): without affecting viability, megakaryopoiesis or myelopoiesis; also recorded: does not affect | myeloid (CD11b) differentiation (primary human HSPCs; varying doses FF vs DMSO, FIG. 1D): without affecting viability, megakaryopoiesis or myelopoiesis; also recorded: does not affect | erythroid differentiation (CD235a) (RIOK2 KD HSPCs): stimulated erythropoiesis in RIOK2-knockdown (KD) HSPCs; also recorded: to levels comparable with basal erythropoiesis in control cells; also recorded: increases erythroid differentiation (CD235a) in RIOK2 KD HSPCs; also recorded: markedly rescues erythropoiesis | erythropoiesis (APC KD HSPCs): moderately rescues erythropoiesis | erythroid differentiation (ADRB2-deficient HSPCs): failed to induce erythropoiesis in ADRB2-deficient HSPCs; also recorded: inability of FF to induce erythroid differentiation | colony forming unit-erythroid (CFU-e) from BM ([1]; 0.3 mg/kg i.p., FIG. 39A): enhances colony forming unit-erythroid (CFU-e) | transferrin receptor expression in CFU-e derived from BMPs ([1]; FIG. 39B): transferrin receptor expression is enhanced | Hemoglobin (Hb) in peripheral blood ([1]; after 7 and 14 days of i.p., FIG. 35): increase Hemoglobin (Hb) | RBC parameters (HCT % and RBCs) in peripheral blood ([1]; after 7 days of i.p., FIG. 34): increases RBC parameters | LS-K and LSK cells in bone marrow progenitors ([1]; after 14 days of i.p., FIG. 36A-36B): increase LSK, LS-K, and mitochondrial activity | mitochondrial membrane potential (TMRE staining) in bone marrow progenitors ([1]; after 14 days of i.p., FIG. 36C): increase LSK, LS-K, and mitochondrial activity | megakaryocyte erythrocyte progenitors (MEP) in BM ([1]; after 14 days of i.p., FIG. 37A): increase megakaryocyte erythrocyte progenitors (MEP) | body weights ([1]; i.p., PHZ 60 mg/kg, FIG. 32): enhances body weights | platelets and WBCs in peripheral blood ([1]; i.p., PHZ 60 mg/kg, FIG. 33): do not affect platelets and WBCs | % changes in RBC parameters (HCT%, Hb, RBCs) ([2]; 0.3 mg/kg 3× weekly i.p., FIG. 78): rescues anemia | absolute values of RBC parameters (Hb, HCT %, RBCs) ([2]; 0.3 mg/kg 3× weekly i.p., FIG. 79): elevates RBC parameters | terminal erythroid progenitors in the BM ([2]; 0.3 mg/kg 3× weekly i.p., FIG. 81A): elevates erythroid progenitors | serum BUN and creatinine levels ([2]; FIG. 77): does not affect serum BUN and creatinine levels | WBCs and platelets ([2]; FIG. 80): does not affect WBC parameters | body weights ([2]; i.p., vs cisplatin+vehicle, FIG. 76): significantly rescues (elevates) body weights | monocyte counts (wild-type C57BL/6J mice; 0.1 mg/kg and 1.0 mg/kg): but not at the lowest dose (0.1 mg/kg) or highest dose (1.0 mg/kg) | hemoglobin (Hb) levels (wild-type C57BL/6J mice; 0.1 mg/kg to 0.5 mg/kg): increased with dose | hematocrit (HCT) % and RBC counts (wild-type C57BL/6J mice; 0.3 mg/kg and 0.5 mg/kg, FIG. 84B-84C): elevated | body weights (wild-type C57BL/6J mice; 1.0 mg/kg): pronounced increase in body weights | RBC parameters (Hb, HCT %, RBC numbers) (wild-type C57BL/6J mice; 1.0 mg/kg): this effect is not observed | hemoglobin (Hb) levels (wild-type C57BL/6J mice; 1.0 mg/kg): no effect was observed | white blood cell (WBC) count (wild-type C57BL/6J mice; 1.0 mg/kg, FIG. 85A): modestly impacts WBC; also recorded: only marginally affected | body weights (wild-type C57BL/6J mice; 0.1-0.5 mg/kg): modestly increasing body weights | % change in body weights (wild-type C57BL/6J mice; 0.1/0.3/0.5/1.0 mg/kg daily i.p., FIG. 83): increases body weights in a dose-dependent manner; also recorded: showed a dose-dependent increase in body-weight | RBC parameters (Hb, HCT %, RBC numbers) (wild-type C57BL/6J mice; 0.3 and 0.5 mg/kg): enhance and sustain RBC parameters | monocyte counts (wild-type C57BL/6J mice; 0.3 and 0.5 mg/kg): modestly impacts monocyte counts; also recorded: marginally affected | platelets (wild-type C57BL/6J mice; any dose, FIG. 85C): No significant effect was observed | white blood count (WBC) numbers (wild-type C57BL/6J mice; lowest doses, FIG. 85A): does not influence | HIF-1α expression in bone marrow cells ([3]; 0.5mg/kg ip 3× weekly, qPCR, FIG. 88A): enhances HIF-1α expression; also recorded: both significantly increased | VEGFA expression in bone marrow cells ([3]; 0.5mg/kg ip 3× weekly, qPCR, FIG. 88B): enhances; also recorded: both significantly increased | expression of Klf9, Klf13, Klf11, Hif1a, Epas1, Ddit4, Cirbp, Rora in erythroid progenitors from bone marrow ([3]; bulk RNA sequencing, FF-treated vs vehicle-treated, FIG. 87): increased in FF-treated mice | muscle structure and function after injury (mice; literature): improve muscle structure and function after injury | muscle mass (mice; mice (Gehrig et al. 2010; Ryall et al. 2008)): increase muscle mass
